{"source": "paper PMC5218480", "about": "(PLoS ONE, 2017)", "test_system": "MV-4-11 cells", "experiment": "Gene expression microarray analysis (Affymetrix PrimeView) and GSEA", "type": "cell-based, human", "design": "RFU PODN (11730768_x_at) / Fold change /veh PODN (11730768_x_at) / RFU LINC00158 (11744669_a_at) / Fold change /veh LINC00158 (11744669_a_at) / RFU DUSP10 (11751237_a_at) / Fold change /veh DUSP10 (11751237_a_at) / RFU ID3 (11757404_x_at) / Fold change /veh ID3 (11757404_x_at) / RFU PLEKHG5 (11737974_s_at) / Fold change /veh PLEKHG5 (11737974_s_at) / RFU LRRC4B (11730491_at) / Fold change /veh LRRC4B (11730491_at) / RFU GIMAP4 (11747438_a_at) / Fold change /veh GIMAP4 (11747438_a_at) / RFU KRT8 (11758183_x_at) / Fold change /veh KRT8 (11758183_x_at) / RFU CNN1 (11734310_a_at) / Fold change /veh CNN1 (11734310_a_at) / RFU VPS37D (11726825_at) / Fold change /veh VPS37D (11726825_at) / RFU C10orf10 (11716522_x_at) / Fold change /veh C10orf10 (11716522_x_at) / RFU KIR2DL2 /// KIR2DL4 /// KIR2DL5A /// KIR2DL5B /// KIR2DS1 /// KIR2DS2 /// KIR2DS3 /// KIR2DS4 /// KIR3DL3 /// KIR3DL3 /// KIR3DS1 (11738374_at) / Fold change /veh KIR2DL2 /// KIR2DL4 /// KIR2DL5A /// KIR2DL5B /// KIR2DS1 /// KIR2DS2 /// KIR2DS3 /// KIR2DS4 /// KIR3DL3 /// KIR3DL3 /// KIR3DS1 (11738374_at) / RFU C1QL1 (11718748_at) / Fold change /veh C1QL1 (11718748_at) / RFU TMPRSS4 (11747572_a_at) / Fold change /veh TMPRSS4 (11747572_a_at) / RFU HAMP (11756126_x_at) / Fold change /veh HAMP (11756126_x_at) / RFU RNFT2 (11725882_a_at) / Fold change /veh RNFT2 (11725882_a_at) / RFU NR4A2 (11747474_a_at) / Fold change /veh NR4A2 (11747474_a_at) / RFU ABCC12 (11746883_a_at) / Fold change /veh ABCC12 (11746883_a_at) / RFU TMEM136 (11760407_x_at) / Fold change /veh TMEM136 (11760407_x_at) / RFU CLDN22 /// WWC2 (11732394_at) / Fold change /veh CLDN22 /// WWC2 (11732394_at) / RFU HLA-DPB1 (11760878_x_at) / Fold change /veh HLA-DPB1 (11760878_x_at) / RFU SPINT1 (11716480_a_at) / Fold change /veh SPINT1 (11716480_a_at) / RFU GAP43 (11754022_s_at) / Fold change /veh GAP43 (11754022_s_at) / RFU A4GNT (11735810_at) / Fold change /veh A4GNT (11735810_at) / RFU PRB3 (11715151_x_at) / Fold change /veh PRB3 (11715151_x_at) / RFU TUBB4B (11761932_at) / Fold change /veh TUBB4B (11761932_at) / RFU CAPN14 (11732068_a_at) / Fold change /veh CAPN14 (11732068_a_at) / RFU TMCC2 (11721928_a_at) / Fold change /veh TMCC2 (11721928_a_at) / RFU IRGQ (11745062_a_at) / Fold change /veh IRGQ (11745062_a_at) / RFU FAM174B (11720279_a_at) / Fold change /veh FAM174B (11720279_a_at) / RFU TMPRSS4 (11748680_a_at) / Fold change /veh TMPRSS4 (11748680_a_at) / RFU FAM212B (11763350_a_at) / Fold change /veh FAM212B (11763350_a_at) / RFU PLEKHG5 (11743358_a_at) / Fold change /veh PLEKHG5 (11743358_a_at) / RFU ZSCAN30 (11745921_a_at) / Fold change /veh ZSCAN30 (11745921_a_at) / RFU CMKLR1 (11741424_a_at) / Fold change /veh CMKLR1 (11741424_a_at) / RFU LOC101060620 /// MAPK8IP1 (11723275_at) / Fold change /veh LOC101060620 /// MAPK8IP1 (11723275_at) / RFU SPTSSB (11747773_x_at) / Fold change /veh SPTSSB (11747773_x_at) / RFU PRSS12 (11739890_at) / Fold change /veh PRSS12 (11739890_at) / RFU BIN1 (11741810_x_at) / Fold change /veh BIN1 (11741810_x_at) / RFU WNT11 (11732464_a_at) / Fold change /veh WNT11 (11732464_a_at) / RFU C10orf10 (11716521_a_at) / Fold change /veh C10orf10 (11716521_a_at) / RFU C5orf56 (11738089_at) / Fold change /veh C5orf56 (11738089_at) / RFU CYB561 (11721691_x_at) / Fold change /veh CYB561 (11721691_x_at) / RFU ANKRD19P (11752326_a_at) / Fold change /veh ANKRD19P (11752326_a_at) / RFU OR2T12 /// OR2T33 /// OR2T8 (11738714_s_at) / Fold change /veh OR2T12 /// OR2T33 /// OR2T8 (11738714_s_at) / RFU VCAN (11748164_a_at) / Fold change /veh VCAN (11748164_a_at) / RFU JSRP1 (11732532_at) / Fold change /veh JSRP1 (11732532_at) / RFU KRTAP10-11 (11738290_x_at) / Fold change /veh KRTAP10-11 (11738290_x_at) / RFU MYO3A (11730013_a_at) / Fold change /veh MYO3A (11730013_a_at) / RFU EBF3 (11725865_a_at) / Fold change /veh EBF3 (11725865_a_at) / RFU CAMK2N1 (11719241_x_at) / Fold change /veh CAMK2N1 (11719241_x_at) / RFU C5orf56 (11738088_a_at) / Fold change /veh C5orf56 (11738088_a_at) / RFU OLFML3 (11715873_a_at) / Fold change /veh OLFML3 (11715873_a_at) / RFU LOC100653217 /// NTM (11731650_a_at) / Fold change /veh LOC100653217 /// NTM (11731650_a_at) / RFU MAPK11 (11762145_a_at) / Fold change /veh MAPK11 (11762145_a_at) / RFU FIZ1 (11724087_x_at) / Fold change /veh FIZ1 (11724087_x_at) / RFU OASL (11726364_x_at) / Fold change /veh OASL (11726364_x_at) / RFU SOX15 (11748057_x_at) / Fold change /veh SOX15 (11748057_x_at) / RFU CD79A (11719716_a_at) / Fold change /veh CD79A (11719716_a_at) / RFU HIST1H1D (11736915_at) / Fold change /veh HIST1H1D (11736915_at) / RFU CASKIN2 (11723855_a_at) / Fold change /veh CASKIN2 (11723855_a_at) / RFU LOC730098 (11760151_x_at) / Fold change /veh LOC730098 (11760151_x_at) / RFU OR4N2 (11742367_at) / Fold change /veh OR4N2 (11742367_at) / RFU PRRT2 (11749266_a_at) / Fold change /veh PRRT2 (11749266_a_at) / RFU SNX32 (11753110_a_at) / Fold change /veh SNX32 (11753110_a_at) / RFU CDHR5 (11726645_a_at) / Fold change /veh CDHR5 (11726645_a_at) / RFU RCAN1 (11760418_a_at) / Fold change /veh RCAN1 (11760418_a_at) / RFU FAM167A (11723789_a_at) / Fold change /veh FAM167A (11723789_a_at) / RFU FAM26E (11764081_at) / Fold change /veh FAM26E (11764081_at) / RFU ISYNA1 (11749810_s_at) / Fold change /veh ISYNA1 (11749810_s_at) / RFU ACY1 (11761880_at) / Fold change /veh ACY1 (11761880_at) / RFU 11764098_at / Fold change /veh 11764098_at / RFU SAMD14 (11745864_x_at) / Fold change /veh SAMD14 (11745864_x_at) / RFU NPB (11741838_a_at) / Fold change /veh NPB (11741838_a_at) / RFU TMPRSS6 (11731388_a_at) / Fold change /veh TMPRSS6 (11731388_a_at) / RFU KRTAP10-2 (11738614_at) / Fold change /veh KRTAP10-2 (11738614_at) / RFU ARHGAP8 /// PRR5-ARHGAP8 (11727945_x_at) / Fold change /veh ARHGAP8 /// PRR5-ARHGAP8 (11727945_x_at) / RFU KRTAP5-7 /// NADSYN1 (11734609_at) / Fold change /veh KRTAP5-7 /// NADSYN1 (11734609_at) / RFU RASL12 (11751679_a_at) / Fold change /veh RASL12 (11751679_a_at) / RFU CDKN2B (11736163_a_at) / Fold change /veh CDKN2B (11736163_a_at) / RFU PRF1 (11729649_at) / Fold change /veh PRF1 (11729649_at) / RFU, ZNF638 /// ZNF638-IT1 / Fold change vs veh, ZNF638 /// ZNF638-IT1 / RFU, PANK3 / Fold change vs veh, PANK3 / RFU, SH3YL1 / Fold change vs veh, SH3YL1 / RFU, ZEB2 / Fold change vs veh, ZEB2 / RFU, NRIP1 / Fold change vs veh, NRIP1 / RFU, PTTG1IP / Fold change vs veh, PTTG1IP / RFU, CAPN2 / Fold change vs veh, CAPN2 / RFU, MED14 / Fold change vs veh, MED14 / RFU, SNORA58 / Fold change vs veh, SNORA58 / RFU, C1orf63 / Fold change vs veh, C1orf63 / RFU, LRRFIP1 / Fold change vs veh, LRRFIP1 / RFU, NDUFAF7 / Fold change vs veh, NDUFAF7 / RFU, SLC12A2 / Fold change vs veh, SLC12A2 / RFU, IBTK / Fold change vs veh, IBTK / RFU, ESF1 / Fold change vs veh, ESF1 / Fold change vs veh, TMEM50B / RFU, TAOK1 / Fold change vs veh, TAOK1 / RFU, ACBD3 / Fold change vs veh, ACBD3 / RFU, TMA16 / Fold change vs veh, TMA16 / RFU, RWDD3 / Fold change vs veh, RWDD3 / RFU, BCAT1 / Fold change vs veh, BCAT1 / RFU, EDEM3 / Fold change vs veh, EDEM3 / RFU, TMEM33 / Fold change vs veh, TMEM33 / RFU, WDR75 / Fold change vs veh, WDR75 / RFU, AHCTF1 / Fold change vs veh, AHCTF1 / RFU, TFRC / Fold change vs veh, TFRC / RFU, ZDHHC17 / Fold change vs veh, ZDHHC17 / RFU, NOM1 / Fold change vs veh, NOM1 / RFU, ARL8B / Fold change vs veh, ARL8B / RFU, ZBTB11 / Fold change vs veh, ZBTB11 / RFU, TAMM41 / Fold change vs veh, TAMM41 / RFU, KIAA1704 /// LOC100996395 / Fold change vs veh, KIAA1704 /// LOC100996395 / RFU, ING1 / Fold change vs veh, ING1 / RFU, TRMT61B / Fold change vs veh, TRMT61B / RFU, FUBP3 / Fold change vs veh, FUBP3 / RFU, TP53 / Fold change vs veh, TP53 / RFU, TNKS2 / Fold change vs veh, TNKS2 / RFU, ZFP14 / Fold change vs veh, ZFP14 / RFU, ACTR2 / Fold change vs veh, ACTR2 / RFU, PPP3R1 / Fold change vs veh, PPP3R1 / RFU, PIK3R1 / Fold change vs veh, PIK3R1 / RFU, HNRNPA1 / Fold change vs veh, HNRNPA1 / RFU, RNF170 / Fold change vs veh, RNF170 / RFU, ZNF28 / Fold change vs veh, ZNF28 / RFU, RNGTT / Fold change vs veh, RNGTT / RFU, OGT / Fold change vs veh, OGT / RFU, BRD1 / Fold change vs veh, BRD1 / RFU, MARS / Fold change vs veh, MARS / RFU, ZNF655 / Fold change vs veh, ZNF655 / RFU, FAHD1 / Fold change vs veh, FAHD1 / RFU, BDP1 / Fold change vs veh, BDP1 / RFU, LRRCC1 / Fold change vs veh, LRRCC1 / RFU, ARID1A / Fold change vs veh, ARID1A / RFU, ZNF146 / Fold change vs veh, ZNF146 / RFU, ZNF330 / Fold change vs veh, ZNF330 / RFU, GPN3 / Fold change vs veh, GPN3 / RFU, C9orf123 / Fold change vs veh, C9orf123 / RFU, N4BP2L2 / Fold change vs veh, N4BP2L2 / RFU, ARFIP1 / Fold change vs veh, ARFIP1 / RFU, FAM179B / Fold change vs veh, FAM179B / RFU, BCL10 / Fold change vs veh, BCL10 / RFU, UHRF1BP1L / Fold change vs veh, UHRF1BP1L / RFU, BET1 / Fold change vs veh, BET1 / RFU, CNOT2 / Fold change vs veh, CNOT2 / RFU, ZNF268 / Fold change vs veh, ZNF268 / Fold change vs veh, ZNF507 / RFU, DGCR2 / Fold change vs veh, DGCR2 / RFU, WDSUB1 / Fold change vs veh, WDSUB1 / Fold change vs veh, HSP90B1 /// MIR3652 / RFU, ADSS / Fold change vs veh, ADSS / RFU, GK / Fold change vs veh, GK / RFU, ZNF148 / Fold change vs veh, ZNF148 / RFU, TAF9 / Fold change vs veh, TAF9 / RFU, SLC1A5 / Fold change vs veh, SLC1A5 / RFU, SLMO2 / Fold change vs veh, SLMO2 / RFU, ABCC4 / Fold change vs veh, ABCC4 / RFU, LOC101060439 /// RAP1B / Fold change vs veh, LOC101060439 /// RAP1B / RFU, RFX7 / Fold change vs veh, RFX7 / RFU, GTPBP10 / Fold change vs veh, GTPBP10 / RFU, CNEP1R1 / Fold change vs veh, CNEP1R1 / RFU, BIVM-ERCC5 /// ERCC5 / Fold change vs veh, BIVM-ERCC5 /// ERCC5 / RFU, ILF3 / Fold change vs veh, ILF3 / RFU 11762660_at / Fold change /veh 11762660_at / RFU VCAN (11757783_s_at) / Fold change /veh VCAN (11757783_s_at) / RFU DDX43 (11728927_at) / Fold change /veh DDX43 (11728927_at) / RFU KRT8 (11758188_x_at) / Fold change /veh KRT8 (11758188_x_at) / RFU NKD1 (11759106_at) / Fold change /veh NKD1 (11759106_at) / RFU SRD5A1 (11742802_a_at) / Fold change /veh SRD5A1 (11742802_a_at) / RFU TPSAB1 /// TPSB2 (11721975_s_at) / Fold change /veh TPSAB1 /// TPSB2 (11721975_s_at) / RFU GSTM3 (11746129_a_at) / Fold change /veh GSTM3 (11746129_a_at) / RFU IL23R (11737362_x_at) / Fold change /veh IL23R (11737362_x_at) / RFU TMEM51 (11727254_a_at) / Fold change /veh TMEM51 (11727254_a_at) / RFU PIWIL2 (11732686_x_at) / Fold change /veh PIWIL2 (11732686_x_at) / RFU ORM1 (11744905_x_at) / Fold change /veh ORM1 (11744905_x_at) / RFU CCDC152 (11743942_at) / Fold change /veh CCDC152 (11743942_at) / RFU ECM1 (11717891_a_at) / Fold change /veh ECM1 (11717891_a_at) / RFU IL23R (11748794_a_at) / Fold change /veh IL23R (11748794_a_at) / RFU TNFAIP8L3 (11732012_x_at) / Fold change /veh TNFAIP8L3 (11732012_x_at) / RFU MBOAT4 (11741988_at) / Fold change /veh MBOAT4 (11741988_at) / RFU 11764193_at / Fold change /veh 11764193_at / RFU TMEM53 (11763286_at) / Fold change /veh TMEM53 (11763286_at) / RFU MAGEB2 (11727129_at) / Fold change /veh MAGEB2 (11727129_at) / RFU TMEM200A (11744735_a_at) / Fold change /veh TMEM200A (11744735_a_at) / RFU CCDC152 (11751479_a_at) / Fold change /veh CCDC152 (11751479_a_at) / RFU FAM211A (11726209_a_at) / Fold change /veh FAM211A (11726209_a_at) / RFU RGS16 (11746705_a_at) / Fold change /veh RGS16 (11746705_a_at) / RFU VCAN (11755009_s_at) / Fold change /veh VCAN (11755009_s_at) / RFU RHOB (11743442_s_at) / Fold change /veh RHOB (11743442_s_at) / RFU RGS16 (11720943_a_at) / Fold change /veh RGS16 (11720943_a_at) / RFU RGS16 (11720944_at) / Fold change /veh RGS16 (11720944_at) / RFU, VPS4B / Fold change vs veh, VPS4B / RFU, CREB1 / Fold change vs veh, CREB1 / RFU, DNAJC13 / Fold change vs veh, DNAJC13 / RFU, GNAQ / Fold change vs veh, GNAQ / RFU, CDK5R1 / Fold change vs veh, CDK5R1 / RFU, ZRANB3 / Fold change vs veh, ZRANB3 / RFU, CUL4A / Fold change vs veh, CUL4A / RFU, CCNY / Fold change vs veh, CCNY / RFU, UFL1 / Fold change vs veh, UFL1 / RFU, COG3 / Fold change vs veh, COG3 / RFU, DIAPH2 / Fold change vs veh, DIAPH2 / RFU, SKA2 / Fold change vs veh, SKA2 / RFU, AFF3 / Fold change vs veh, AFF3 / RFU, LMF1 / Fold change vs veh, LMF1 / RFU, IPO11 / Fold change vs veh, IPO11 / RFU, DFFB / Fold change vs veh, DFFB / RFU, FOXP1 / Fold change vs veh, FOXP1 / RFU, CARD8 / Fold change vs veh, CARD8 / RFU, STRN3 / Fold change vs veh, STRN3 / RFU, ADK / Fold change vs veh, ADK / RFU, RASSF2 / Fold change vs veh, RASSF2 / RFU, WIPF1 / Fold change vs veh, WIPF1 / RFU, LARP1B / Fold change vs veh, LARP1B / RFU, RASA1 / Fold change vs veh, RASA1 / RFU, RB1 / Fold change vs veh, RB1 / RFU, PPFIA1 / Fold change vs veh, PPFIA1 / RFU, MAT2A / Fold change vs veh, MAT2A / RFU, CCT5 / Fold change vs veh, CCT5 / RFU, WDR92 / Fold change vs veh, WDR92 / RFU, CUX1 / Fold change vs veh, CUX1 / RFU, TTC7A / Fold change vs veh, TTC7A / RFU, TMEM135 / Fold change vs veh, TMEM135 / RFU, DEPTOR / Fold change vs veh, DEPTOR / RFU, CPM / Fold change vs veh, CPM / RFU, DNAJB6 / Fold change vs veh, DNAJB6 / RFU, CACNA2D3 / Fold change vs veh, CACNA2D3 / RFU, DTX4 / Fold change vs veh, DTX4 / RFU, TFCP2 / Fold change vs veh, TFCP2 / RFU, GMCL1 /// GMCL1P1 / Fold change vs veh, GMCL1 /// GMCL1P1 / RFU, AEBP2 / Fold change vs veh, AEBP2 / RFU, SNHG1 /// SNORD22 /// SNORD25 /// SNORD26 /// SNORD27 /// SNORD28 /// SNORD29 /// SNORD31 / Fold change vs veh, SNHG1 /// SNORD22 /// SNORD25 /// SNORD26 /// SNORD27 /// SNORD28 /// SNORD29 /// SNORD31 / Fold change (Aza/veh), C12orf56 (ProbeSet 11735607_a_at) / Fold change (ACY-1035/veh), C12orf56 (ProbeSet 11735607_a_at) / Fold change (Aza/veh), FGFR1OP (ProbeSet 11751329_s_at) / Fold change (ACY-1035/veh), FGFR1OP (ProbeSet 11751329_s_at) / Fold change (Aza/veh), VPS36 (ProbeSet 11739960_a_at) / Fold change (ACY-1035/veh), VPS36 (ProbeSet 11739960_a_at) / RFU SYPL1 (11715823_x_at) / Fold change /veh SYPL1 (11715823_x_at) / RFU IGFBP7 (11715501_s_at) / Fold change /veh IGFBP7 (11715501_s_at) / RFU REEP3 (11722064_at) / Fold change /veh REEP3 (11722064_at) / RFU IGLL1 (11728026_x_at) / Fold change /veh IGLL1 (11728026_x_at): dose or concentration left out as unconfirmed", "settings": "MV-4-11 cells, 48 hours"}
{"smiles": "Nc1ncn([C@@H]2O[C@H](CO)[C@@H](O)[C@H]2O)c(=O)n1", "note": "[azacitidine]", "values": [{"measurement": "RFU C10orf10 (11716521_a_at)", "result": 42.51, "unit": "RFU"}]}
